Consider 10 compounds from patent US20230295197A1, “STAT5 and STAT6 Degraders and Uses Thereof” (REGENTS OF THE UNIVERSITY OF MICHICAN, priority 2022, published 2023).

The test system of one assay is STAT5. Put plainly: Immunoblotting (Western blot) analysis of STAT5 degradation efficiency of degraders in treated cells. The assay is classed as cell-based. A digest of the protocol:
(§1)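 ~1e6 cells/pt; cpd at indicated conc and duration; RIPA + protease/phosphatase inhibitors; BCA; 20-40 μg/lane Tris-glycine SDS-PAGE; PVDF; primary Ab 1:1000 o/n 4 °C; IRDye secondaries 1 h rt; infrared scan and densitometry; GAPDH loading ctrl.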

For the next assay, the target named is T1, STAT6 (Homo sapiens, UniProt P42226).
T1 construct: endogenous in cells; host or cells: MOLM-16, KU-812, SKNO1, MB231, L1236
T1 sequence (P42226 1-847): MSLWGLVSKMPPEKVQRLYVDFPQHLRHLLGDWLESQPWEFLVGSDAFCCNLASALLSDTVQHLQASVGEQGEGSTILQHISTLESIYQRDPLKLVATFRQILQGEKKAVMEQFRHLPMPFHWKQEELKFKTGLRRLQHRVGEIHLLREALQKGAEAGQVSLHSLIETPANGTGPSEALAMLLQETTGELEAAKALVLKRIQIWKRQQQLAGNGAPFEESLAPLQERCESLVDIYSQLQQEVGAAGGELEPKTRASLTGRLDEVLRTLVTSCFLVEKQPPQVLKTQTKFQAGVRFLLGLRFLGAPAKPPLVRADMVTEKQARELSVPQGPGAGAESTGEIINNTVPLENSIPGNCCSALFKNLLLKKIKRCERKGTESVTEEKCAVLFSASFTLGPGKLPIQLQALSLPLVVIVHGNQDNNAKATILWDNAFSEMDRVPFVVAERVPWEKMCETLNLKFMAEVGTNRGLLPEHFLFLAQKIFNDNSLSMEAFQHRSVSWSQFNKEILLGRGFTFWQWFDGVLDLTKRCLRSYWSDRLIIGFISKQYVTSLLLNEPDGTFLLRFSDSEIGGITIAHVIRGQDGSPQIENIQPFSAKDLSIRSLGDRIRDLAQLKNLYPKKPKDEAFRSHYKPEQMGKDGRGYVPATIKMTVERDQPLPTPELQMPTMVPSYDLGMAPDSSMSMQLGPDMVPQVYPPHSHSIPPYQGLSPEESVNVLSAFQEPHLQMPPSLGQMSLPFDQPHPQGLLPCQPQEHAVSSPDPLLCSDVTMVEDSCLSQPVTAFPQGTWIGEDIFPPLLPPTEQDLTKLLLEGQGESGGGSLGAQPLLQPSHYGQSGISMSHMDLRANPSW
Put plainly: Immunoblotting (Western blot) analysis of STAT6 degradation efficiency of degraders in treated cells. The assay is classed as cell-based. In short, it runs like this:
as §1
On the technique in general: In western blotting, separated proteins are transferred to a membrane and probed.

Setting [1] is: KU-812 cells, read-out: DC50 S5 KU-812.
Setting [2] is: MOLM-16 cells, class symbols, read-out: DC50 S5 MOLM-16.
Setting [3] is: MOLM-16 cells, class symbols, read-out: DC50 S6 MOLM-16.
Setting [4] is: MOLM-16 cells, numeric bound, read-out: DC50 S5 MOLM-16.
[5] abbreviates: MOLM-16 cells, numeric bound, read-out: DC50 S6 MOLM-16.
The mark [6] stands for this setting: SKNO1 cells, read-out: DC50 S5 SKNO1.

Each structure is given as a SMILES string. Read-outs that look alike come from different tables or passages of the source.

With `CN(CCCC#Cc1cccc2c1CN(C1CCC(=O)NC1=O)C2=O)C(=O)CCN(C(=O)[C@@H]1CCCN1C(=O)[C@@H](NC(=O)c1cc2cc(C(F)(F)P(=O)(O)OCOC(=O)C(C)(C)C)ccc2s1)C(C)(C)C)c1ccc(-c2nccs2)cc1` (stereo partly drawn) [Compound 679, ((((2-(((2S)-1-((2S)-2-((3-((5-(2-(2,6-dioxopiperidin-3-yl)-1-oxoisoindolin-4-yl)pent-4-yn-1-yl)(methyl)amino)-3-oxopropyl)(4-(thiazol-2-yl)phenyl)carbamoyl)pyrrolidin-1-yl)-3,3-dimethyl-1-oxobutan-2-yl)carbamoyl)benzo[b]thiophen-5-yl)difluoromethyl)(hydroxy)phosphoryl)oxy)methyl pivalate], the DC50 was 100 to 1000 nM in the assay on STAT5 (setting [1]), < 100 nM in the assay with STAT5 (setting [2]) and > 10000 nM at STAT6 (setting [3]).

On to `CC(C)(C)[C@H](NC(=O)c1cc2cc(C(F)(F)P(=O)(O)O)ccc2s1)C(=O)N1C[C@H](NC(=O)CCCCCC#Cc2ccc3c(c2)CN(C2CCC(=O)NC2=O)C3=O)C[C@H]1C(=O)Nc1ncc(-c2ccccc2)s1` (stereo partly drawn) [Compound 568, ((2-(((2S)-1-((2S,4R)-4-(8-(2-(2,6-dioxopiperidin-3-yl)-1-oxoisoindolin-5-yl)oct-7-ynamido)-2-((5-phenylthiazol-2-yl)carbamoyl)pyrrolidin-1-yl)-3,3-dimethyl-1-oxobutan-2-yl)carbamoyl)benzo[b]thiophen-5-yl)difluoromethyl)phosphonic acid], for which the DC50 in the assay on STAT5 (setting [4]) and at STAT6 (setting [5]) was > 300 nM in each case.

Consider `CN(CCCC#Cc1cccc2c1CN(C1CCC(=O)NC1=O)C2=O)C(=O)CCN(C(=O)[C@@H]1CCCN1C(=O)[C@@H](NC(=O)c1cc2cc(C(F)(F)P(=O)(O)OCOC(=O)C(C)(C)C)ccc2s1)C(C)(C)C)c1ccc2cc(F)ccc2c1` (stereo partly drawn) [Compound 675, ((((2-(((2S)-1-((2S)-2-((3-((5-(2-(2,6-dioxopiperidin-3-yl)-1-oxoisoindolin-4-yl)pent-4-yn-1-yl)(methyl)amino)-3-oxopropyl)(6-fluoronaphthalen-2-yl)carbamoyl)pyrrolidin-1-yl)-3,3-dimethyl-1-oxobutan-2-yl)carbamoyl)benzo[b]thiophen-5-yl)difluoromethyl)(hydroxy)phosphoryl)oxy)methyl pivalate], for which the figures for the DC50 with STAT5 (setting [2]) and at STAT6 (setting [5]) were 100 to 1000 nM and > 300 nM, respectively.

For the compound `CC(C)(C)[C@H](NC(=O)c1cc2cc(C(F)(F)P(=O)(O)O)ccc2s1)C(=O)N1C[C@H](OCCCCCCC#Cc2cccc3c2CN(C2CCC(=O)NC2=O)C3=O)C[C@H]1C(=O)Nc1ncc(-c2ccccc2)s1` (stereo partly drawn) [Compound 606, ((2-(((2S)-1-((2S,4R)-4-((8-(2-(2,6-dioxopiperidin-3-yl)-1-oxoisoindolin-4-yl)oct-7-yn-1-yl)oxy)-2-((5-phenylthiazol-2-yl)carbamoyl)pyrrolidin-1-yl)-3,3-dimethyl-1-oxobutan-2-yl)carbamoyl)benzo[b]thiophen-5-yl)difluoromethyl)phosphonic acid], the DC50 with STAT5 (setting [4]) and at STAT6 (setting [5]) was > 300 nM each time.

Take `Cc1ncsc1-c1ccc([C@H](CC(=O)NCCCCCCCCC(=O)N[C@@H]2C[C@@H](C(=O)Nc3ncc(-c4ccccc4)s3)N(C(=O)[C@@H](NC(=O)c3cc4cc(C(F)(F)P(=O)(O)O)ccc4s3)C(C)(C)C)C2)NC(=O)[C@@H]2C[C@@H](O)CN2C(=O)[C@@H](NC(=O)C2(F)CC2)C(C)(C)C)cc1` [Compound 578, (difluoro(2-(((S)-1-((2S,4R)-4-(9-((S)-3-((2S,4R)-1-((S)-2-(1-fluorocyclopropane-1-carboxamido)-3,3-dimethylbutanoyl)-4-hydroxypyrrolidine-2-carboxamido)-3-(4-(4-methylthiazol-5-yl)phenyl)propanamido)nonanamido)-2-((5-phenylthiazol-2-yl)carbamoyl)pyrrolidin-1-yl)-3,3-dimethyl-1-oxobutan-2-yl)carbamoyl)benzo[b]thiophen-5-yl)methyl)phosphonic acid]: the DC50 in the assay on STAT5 (setting [4]) and on STAT6 (setting [5]) was > 300 nM each time.

In the case of `CN(CCCC#Cc1cccc2c1CN(C1CCC(=O)NC1=O)C2=O)C(=O)CCN(C(=O)[C@@H]1CCCN1C(=O)[C@@H](NC(=O)c1cc2cc(C(F)(F)P(=O)(O)OCOC(=O)C(C)(C)C)ccc2s1)C(C)(C)C)c1ccc2occc2c1` (stereo partly drawn) [Compound 672, ((((2-(((2S)-1-((2S)-2-(benzofuran-5-yl(3-((5-(2-(2,6-dioxopiperidin-3-yl)-1-oxoisoindolin-4-yl)pent-4-yn-1-yl)(methyl)amino)-3-oxopropyl)carbamoyl)pyrrolidin-1-yl)-3,3-dimethyl-1-oxobutan-2-yl)carbamoyl)benzo[b]thiophen-5-yl)difluoromethyl)(hydroxy)phosphoryl)oxy)methyl pivalate], the DC50 is < 100 nM with STAT5 (setting [2]) and > 300 nM at STAT6 (setting [5]).

Turning to `CC(C)(C)C(=O)OCOP(=O)(O)C(F)(F)c1ccc2sc(C(=O)N[C@H](C(=O)N3CCC[C@H]3C(=O)N(CCOCCOCC#Cc3cccc4c3CN(C3CCC(=O)NC3=O)C4=O)c3ccc4ccccc4c3)C(C)(C)C)cc2c1` (stereo partly drawn) [Compound 678, ((((2-(((2S)-1-((2S)-2-((2-(2-((3-(2-(2,6-dioxopiperidin-3-yl)-1-oxoisoindolin-4-yl)prop-2-yn-1-yl)oxy)ethoxy)ethyl)(naphthalen-2-yl)carbamoyl)pyrrolidin-1-yl)-3,3-dimethyl-1-oxobutan-2-yl)carbamoyl)benzo[b]thiophen-5-yl)difluoromethyl)(hydroxy)phosphoryl)oxy)methyl pivalate], the DC50 in the assay on STAT5 (setting [4]) and at STAT6 (setting [5]) was > 300 nM in each case.

For `CC(C)(C)[C@H](NC(=O)c1cc2cc(C(F)(F)P(=O)(O)O)ccc2s1)C(=O)N1CCC[C@H]1C(=O)N(CCC(=O)NCCC#Cc1cccc2c1CN(C1CCC(=O)NC1=O)C2=O)c1ccc(Br)cc1` (stereo partly drawn) [Compound 614, ((2-(((2S)-1-((2S)-2-((4-bromophenyl)(3-((4-(2-(2,6-dioxopiperidin-3-yl)-1-oxoisoindolin-4-yl)but-3-yn-1-yl)amino)-3-oxopropyl)carbamoyl)pyrrolidin-1-yl)-3,3-dimethyl-1-oxobutan-2-yl)carbamoyl)benzo[b]thiophen-5-yl)difluoromethyl)phosphonic acid], the DC50 in the assay on STAT5 (setting [1]) is > 10000 nM; in the assay on STAT5 (setting [4]), > 300 nM; in the assay on STAT5 (setting [6]), > 10000 nM; on STAT6 (setting [3]), > 10000 nM.

As to `CC(C)(C)[C@H](NC(=O)c1cc2cc(C(F)(F)P(=O)(O)O)ccc2s1)C(=O)N1CCC[C@H]1C(=O)N(CCC(=O)NCCCC#Cc1cccc2c1CN(C1CCC(=O)NC1=O)C2=O)c1ccc(S(C)(=O)=O)cc1` (stereo partly drawn) [Compound 654, ((2-(((2S)-1-((2S)-2-((3-((5-(2-(2,6-dioxopiperidin-3-yl)-1-oxoisoindolin-4-yl)pent-4-yn-1-yl)amino)-3-oxopropyl)(4-(methylsulfonyl)phenyl)carbamoyl)pyrrolidin-1-yl)-3,3-dimethyl-1-oxobutan-2-yl)carbamoyl)benzo[b]thiophen-5-yl)difluoromethyl)phosphonic acid], the DC50 in the assay on STAT5 (setting [4]) was > 300 nM; in the assay on STAT5 (setting [6]) it was > 10000 nM; at STAT6 (setting [5]) it was > 300 nM.

Turning to `CN(C(=O)[C@@H]1C[C@@H](OCC(=O)NCCCCCCC#Cc2cccc3c2CN(C2CCC(=O)NC2=O)C3=O)CN1C(=O)[C@@H](NC(=O)c1cc2cc(C(F)(F)P(=O)(O)O)ccc2s1)C(C)(C)C)c1ccc(Br)cc1` (stereo partly drawn) [Compound 413, ((2-(((2S)-1-((2S,4R)-2-((4-bromophenyl)(methyl)carbamoyl)-4-(2-((8-(2-(2,6-dioxopiperidin-3-yl)-1-oxoisoindolin-4-yl)oct-7-yn-1-yl)amino)-2-oxoethoxy)pyrrolidin-1-yl)-3,3-dimethyl-1-oxobutan-2-yl)carbamoyl)benzo[b]thiophen-5-yl)difluoromethyl)phosphonic acid], the DC50 with STAT5 (setting [6]) was > 10000 nM; on STAT6 (L1236 cells, read-out: DC50 S6 L1236), > 10000 nM; at STAT6 (MB231 cells, read-out: DC50 S6 MB231), > 10000 nM.

One may read the DC50 as the midpoint of the concentration-degradation curve.
